This is an account of results in US4028402A, “Biguanide salts” (Hoffmann-La Roche Inc., priority 1974, dated 1977).

Structures can show the parent of a compound that is named as a salt. Where two headings read alike, the source gives them in different places.

A short description of data set [1]: in vivo. Particulars: rat, po, single daily oral administration for 10 days, 24 hours after the last administration.
For a further data set, the system named is blood lactate. Particulars: single oral dose, 4 h after administration. Here is the method: (§1) Four hours after administration of the test substances, the animals were decapitated. After deproteinization of the mixed blood with perchloric acid, glucose concentration was determined photometrically by the hexokinase method. Lactate concentration was determined photometrically with lactate dehydrogenase.

Another data set has as its system blood glucose. Particulars: single oral dose, 4 h after administration. The procedure: as §1
The nature of data set [2]: in vivo. As to conditions: mouse, po, single daily oral administration for 10 days, 24 hours after the last administration.
The next data set concerns Mouse. Particulars: single daily oral administration for 10 days, 24 hours after the last administration.
A further data set relates to Rat. Particulars: single daily oral administration for 10 days, 24 hours after the last administration.
Setting [3] is: 100 μmol/kg, listed as Bis-dichloroacetate of n-butylbiguanide.
Where [4] appears, read: 300 μmol/kg, listed as Bis-dichloroacetate of n-butylbiguanide.
Where [5] appears, read: 1000 μmol/kg, listed as Bis-dichloroacetate of n-butylbiguanide.
Setting [6] is: 100 μmol/kg, listed as Hydrochloride of n-butylbiguanide.
[7] abbreviates: 300 μmol/kg, listed as Hydrochloride of n-butylbiguanide.
[8] abbreviates: 1000 μmol/kg, listed as Hydrochloride of n-butylbiguanide.

As a reminder, the LD50 is the dose at which mortality reaches 50%. Read a high LD50 as a less toxic substance. As for `CCCCNC(=N)NC(=N)N` [n-butylbiguanide bis-dichloroacetate, 1-butylbiguanide bis-(dichloroacetate)], the median lethal dose (LD50) in the data set “in vivo [1]” is 1200 ± 200 µmol/kg; in “in vivo [2]”, 1130 ± 180 µmol/kg. The “Blood lactate, % in controls” value in the data set on blood lactate (setting [3]) was 91 % in controls; with blood lactate (setting [4]), 100 % in controls; in the data set with blood lactate (setting [5]), 106 % in controls. In addition, the “Blood glucose, % in controls” value in the data set with blood glucose (setting [3]) is given as 69 % in controls; in the data set on blood glucose (setting [4]), 62 % in controls; with blood glucose (setting [5]), 37 % in controls.
For `CCCCNC(=N)NC(=N)N` [n-butylbiguanide hydrochloride, 1-butylbiguanide.HCl], the “Blood lactate, % in controls” value in the data set with blood lactate (setting [6]) worked out at 123 % in controls; in the data set with blood lactate (setting [7]) it was 114 % in controls; in the data set on blood lactate (setting [8]), 254 % in controls. Moreover, the “Blood glucose, % in controls” value was 76 % in controls with blood glucose (setting [6]), 68 % in controls in the data set with blood glucose (setting [7]) and 35 % in controls with blood glucose (setting [8]). Also, the LD50 in the data set with Mouse is listed as 1.37 ± 0.22 mmol/kg; in the data set with Rat it was 0.66 ± 0.10 mmol/kg.
